# Test results: ChEMBL document CHEMBL3232929, “Thermodynamic and structural characterization of halogen bonding in protein-ligand interactions: a case study of PDE5 and its inhibitors” (J Med Chem, 2014)
# Target: cGMP-specific 3',5'-cyclic phosphodiesterase (Homo sapiens, UniProt O76074)
# Experiment: Binding affinity to recombinant PDE5 catalytic domain (unknown origin) by ITC analysis
row,Kd [nM],Compound
1,1730,CCCOc1ccc(S(=O)(=O)N2CCN(C)CC2)cc1-c1nc(CC)c(F)c(=O)[nH]1
2,767,CCCOc1ccc(S(=O)(=O)N2CCN(C)CC2)cc1-c1nc(CC)c(Cl)c(=O)[nH]1
3,416,CCCOc1ccc(S(=O)(=O)N2CCN(C)CC2)cc1-c1nc(CC)c(Br)c(=O)[nH]1
4,152,CCCOc1ccc(S(=O)(=O)N2CCN(C)CC2)cc1-c1nc(CC)c(I)c(=O)[nH]1
5,1450,CCCOc1ccc(S(=O)(=O)N2CCN(C)CC2)cc1-c1nc(CC)cc(=O)[nH]1
